Source: paper PMC11944851, “Computationally Guided Design, Synthesis, and Evaluation of Novel Non-Hydroxamic Histone Deacetylase Inhibitors, Based on N-Trifluoroacetamide as a Zinc-Binding Group, Against Breast Cancer” (Pharmaceuticals, 2025)
Like-named read-outs stand apart in the source and are kept apart here.

Key:
[1] = system: HDACs in nuclear extract of HeLa cells; experiment: HDAC inhibitory activity, fluorescence assay in HeLa nuclear extract; assay type: biochemical
Procedure: In this in vitro assay, residual HDAC activity was measured in a nuclear extract of HeLa cells after incubation with the different compounds at 5 µM, followed by single endpoint fluorescence measurement.
To obtain nuclear extracts, HeLa cell cultures were used. The HeLa cell line was cultured in high-glucose DMEM medium with phenol red, supplemented with 8% fetal bovine serum (Gibco, Waltham, MA, USA), 1% Penicillin/Streptomycin (10,000 U/mL, Gibco, Waltham, MA, USA), and 1% non-essential amino acids (Gibco, Waltham, MA, USA). Cells were maintained in an incubator at 37 °C and 5% CO2 atmosphere. To obtain the required number of cells for nuclear extraction, two 150 cm^2 flasks were cultured, resulting in approximately 2 × 10^7 cells. The cells were trypsinized with a 10% V/V trypsin solution (Gibco, Waltham, MA, USA) and subsequently centrifuged at 3000 rpm for 10 min for counting with trypan blue using an automatic counter (Mart-Counter 3000, Corning, NY, USA). Solutions for nuclear material extraction were prepared following the protocol of the commercial kit Abcam Ab156064 (ABCAM, Milpitas, CA, USA). For the lysis buffer (solution A), 10 mL was prepared with Tris-HCl (10 mM) pH 7.5, NaCl (10 mM), MgCl2 (15 mM), sucrose (250 mM), EGTA (0.1 mM), and NP-40 (0.5%). For the sucrose buffer (solution B), 15 mL was prepared with Tris-HCl (10 mM) pH 7.5, NaCl (10 mM), MgCl2 (3 mM), and sucrose (30%). For the extraction buffer (solution C), 10 mL was prepared with NaCl (420 mM), EGTA (0.1 mM), HEPES-KOH (50 mM, pH 7.5), EDTA Na₂ (0.5 mM), and glycerol (10%). For every 1 × 10^7 of cells, 1 mL of solution A (lysis buffer) was added and vortexed for 10 s, followed by a 15 min rest in an ice bath. Then, 4 mL of solution B (sucrose buffer) was added, and the mixture was centrifuged at 1300× g for 10 min at 4 °C. The supernatant was discarded, and the nuclear pellet was washed with a solution of NaCl (10 mM) and Tris-HCl (10 mM) at pH 7.5. The nuclear pellet was then resuspended in 100 µL of solution C (extraction buffer), sonicated for 30 s, and placed in an ice bath for 30 min. The nuclear solution was centrifuged at 20,000× g for 10 min and the supernatant, containing the nuclear extract, was collected. The nuclear extracts were stored at −80 °C. The Lowry colorimetric assay was used to standardize the protein concentration of the obtained nuclear extracts. A sample of the nuclear extract and a sample of bovine serum albumin as a control were each added to 1 mL of Lowry reagent (sodium tartrate 0.1 M, sodium bicarbonate 0.1 M, CuSO4 0.01 M, and 50% Folin reagent).
Prior to the experiment, a calibration curve was performed to ensure linearity.
Reactions were prepared in a 96-well plate following the specified volumes and conditions. Initially, the appropriate volume of deionized water (ddH2O) and 10 μL of buffer were added to each well. Subsequently, 5 μL of either acetylated or deacetylated substrate was added, depending on the experimental group.
Inhibition controls included Trichostatin A (TSA) at 1 mM, with 2 μL added to achieve a final concentration of 20 μM. The reaction was initiated by adding 4 μL of HeLa nuclear extract to each well, except for the developer control wells. The plate was incubated at 37 °C for 30 min, followed by the addition of 10 μL of developer solution. After a second incubation at 37 °C for another 30 min, fluorescence was measured using a plate reader with an excitation/emission of 350–380 nm/440–460 nm.
Remaining HDAC activity was estimated using the calibration curve, where the fluorescence units (AFU) obtained for each condition were converted into deacetylated substrate concentration (μM).

MCF-7 cells = experiment: MTT cell viability, MCF-7; assay type: cell-based; details: for IC50: MTT, read-out: Cytotoxic Activity IC50 MCF-7; for Selectivity Index MCF-10A/ MCF-7: ratio of IC50
Procedure: (§1) The BC cell lines MCF-7 and MDA-MB-231 were cultured in high-glucose DMEM medium with phenol red, supplemented with 7% and 10% fetal bovine serum (Gibco, Waltham, MA, USA), respectively, 1% Penicillin/Streptomycin (10,000 U/mL, Gibco, Waltham, MA, USA), and 1% non-essential amino acids (Gibco, Waltham, MA, USA). Cell cultures were maintained in a temperature-controlled incubator at 37 °C and 5% CO2 atmosphere. For the 72 h assays with MDA-MB-231, 1.8 x 10³ cells/well were seeded in 100 µL of medium.
(§2) The 3-(4,5-dimethylthiazol-2-yl)-2,5-diphenyl tetrazolium bromide assay was used to evaluate the effect of the designed compounds on cell viability. These compounds were initially dissolved in DMSO (dimethyl sulfoxide) as stock solutions at 150 mM. Cells were seeded in 96-well plates (NEST Biotechnology Co., Wuxi, China) at different densities, depending on the cell line used and the incubation time with the treatments, and left in 100 µL of the corresponding culture medium for 24 h to allow for adhesion. Then, the cells were treated with different concentrations of each compound, maintaining a maximum of 0.46% DMSO. After 48 or 72 h of treatment, 20 µL of MTT (5 mg/mL) in phosphate-buffered saline (PBS; Sigma) solution was added to each well and incubated again for 3 h. Subsequently, the blue formazan compound derived from the MTT was dissolved in 100 µL of DMSO. The optical density of the wells was measured at 550 nm using an ELISA reader (MultiSkan, Thermo Scientific, Waltham, MA, USA). Finally, cell viability was expressed as a percentage relative to the negative control (untreated and 0.46% DMSO).
(§3) Cytotoxicity data were analyzed using one-way ANOVA to evaluate differences between the treated groups and the negative control (DMSO). Multiple comparisons with the negative control were performed using Dunnett’s post hoc test. Statistical analysis was performed using GraphPad Prism 10 software (free trial, https://www.graphpad.com/demos/, accessed on 26 June 2024). For the calculation of the IC50s of the compounds, cytotoxicity responses were fitted to a variable slope sigmoidal equation (log(inhibitor) vs. normalized response). A p < 0.05 value was considered statistically significant.

[2] = MTT cell viability, non-tumorigenic MCF-10A; assay type: cell-based; details: human, MCF-10A non-cancerous mammary epithelial cells, MTT, non-tumorigenic breast cells, read-out: Cytotoxic Activity IC50 MCF-10A
Procedure: (§4) For the culture of normal breast epithelial cells MCF-10A, DMEM-F12 medium without phenol red was used, supplemented with 5% fetal bovine serum (Gibco, Waltham, MA, USA), 1% Penicillin/Streptomycin (10,000 U/mL, Gibco, Waltham, MA, USA), 1% non-essential amino acids (Gibco, Waltham, MA, USA), 0.33% hydrocortisone, 0.2% insulin (100 U/mL), and 0.002% EGF (1 µg/µL). For the assays with MCF-10A cells, 2.5 × 10^3 cells/well were seeded in 100 µL of medium.
as §2, §3

MDA-MB-231 cells = experiment: MTT cell viability, MDA-MB-231; assay type: cell-based; details: for IC50: MTT, read-out: Cytotoxic Activity IC50 MDA-MB-231; for Cytotoxic activity, initial viability experiment: MDA-MB-231, 72 h of treatment; for Selectivity Index MCF-10A/ MDA-MB-231: ratio of IC50
Procedure: as §1, §2, §3

MCF-10A cells = experiment: MTT cell viability, non-tumorigenic MCF-10A; assay type: cell-based; details: 72 h
Procedure: as §4, §2, §3

[3] = 5 µM, single endpoint fluorescence
[4] = Homo sapiens, MDA-MB-231, 72 h, 72 h

| Molecule | Effect on HDAC activity [1, 3] | IC50 (MCF-7 cells; Homo sapiens, MCF7, 72 h, 72 h) [µM] | Selectivity Index MCF-10A/ MCF-7 (MCF-7 cells) | IC50 (MDA-MB-231 cells; [4]) [µM] | Cytotoxic activity, initial viability experiment (MDA-MB-231 cells) | Selectivity Index MCF-10A/ MDA-MB-231 (MDA-MB-231 cells) | also measured |
| --- | --- | --- | --- | --- | --- | --- | --- |
| CC(=O)NCCCCCC(=O)Nc1ccccc1O [5a, 6-Acetamido-N-(2-hydroxyphenyl) Hexanamide] | slight decrease in HDACs activity | – | – | – | – | – | – |
| CC(=O)NCCCCCC(=O)Nc1ccc(O)cc1 [5b, 6-Acetamido-N-(4-hydroxyphenyl) Hexanamide] | – | 230 | 0.74 | 121 ± 26.7 | significant cytotoxic activity | 1.39 | IC50 (MCF-7 cells; 72 h): 228 ± 52.9 µM; IC50 at 72 h [2]: 169 ± 20.6 µM |
| O=C(CCCCCNC(=O)C(F)(F)F)Nc1ccccc1O [6a, N-(2-hydroxyphenyl)-6-(2,2,2-trifluoroacetamido) Hexanamide] | slight decrease in HDACs activity | 254 ± 34.4 | >2.36 | 226 | significant cytotoxic activity | >2.66 | fold less toxic than SAHA in MCF-10A cells (MCF-10A cells): ≈ 200 fold; IC50 (MDA-MB-231 cells; 72 h): 225 ± 17.6 µM |
| O=C(CCCCCNC(=O)C(F)(F)F)Nc1ccc(O)cc1 [6b, N-(4-hydroxyphenyl)-6-(2,2,2-trifluoroacetamido) Hexanamide] | – | 45.7 ± 6.91 | 3.38 | 76.7 | significant cytotoxic activity | 2.01 | fold more active than 5b in ER-positive cells (MCF-7 cells; 72 h): 5 fold; fold less toxic than SAHA in MCF-10A cells (MCF-10A cells): more than 50 fold; IC50 at 72 h [2]: 155 ± 21.6 µM; fold more potent than 5b in triple-negative breast cancer cells (MDA-MB-231 cells; 72 h): 1.5 fold; IC50 (MDA-MB-231 cells; 72 h): 76.7 ± 8.52 µM |
| O=C(CCCCCCC(=O)Nc1ccccc1)NO [SAHA, suberoylanilide hydroxamic acid, reference compound] | reduced HDAC activity almost completely | – | – | – | – | – | – |
| CC(=O)NCCCCCC(=O)O [compound 2, 6-Acetamidohexanoic Acid] | slight decrease in HDACs activity | – | – | – | – | – | – |
| O=C(O)CCCCCNC(=O)C(F)(F)F [compound 3, 6-(2,2,2-trifluoroacetamido) Hexanoic Acid] | slight decrease in HDACs activity | – | – | – | – | – | – |
| Trichostatin A [TSA, reference compound] | – | – | – | – | – | – | Effect on HDAC activity ([1]; TSA 20 µM): reduced HDAC activity almost completely |
